# In patent US20130052636A1, “RAPID DETECTION OF METABOLIC ACTIVITY” (SPECTRAL PLATFORMS, INC., priority 2011, published 2013):
# Legend:
# Format in all cases: cell-based
# [1] = test system: methicillin resistant S. aureus (MRSA); test: Raman marker peak height versus time in serum with MRSA (FIG. 6); settings: representative traces 32 and 34, FIG. 6
# Source text: As described above, if the iron sequestration process is monitored via Raman spectroscopy, then the test involves the collection of a series of Raman spectra over time. A hypothetical depiction of this collection for a non-iron marker is depicted in FIG. 5. The individual Raman spectra comprise one or more peaks such as […], and 23 that, in the case of iron sequestration, are ascribed either to Fe-Tr (21 and 22) or to the apo-Tr and/or serum lipoproteins (23). The peak heights from one of the Fe-Tr peaks (for instance, 22) are monitored over time, as depicted in FIG. 5. If viable pathogens are present, and are sequestering iron to afford Fe-Tr, then the iron-transferrin peaks decrease over time, as depicted by traces 33 and 34 in FIG. 6. On the other hand, if viable pathogens are not present, or if viable pathogens are present in the assay together with an effective antimicrobial agent, then the peak heights are nearly invariant with time.
# With reference to FIGS. 5 and 6, if the lycopene consumption is monitored via Raman spectroscopy as an indicator of metabolic activity, then the test involves the collection of a series of Raman spectra over time. A representative depiction of this collection is depicted in FIG. 5. […]
# HL60 human cells = test: Toxin detection: lycopene Raman peak in human serum, trypticase soy broth and HL60 cells; settings: 4 μM, FIG. 24, 25
# Source text: FIG. 24 depicts the results of one toxin detection experiment. A control sample comprising human serum (centrifuged from the blood collected from a healthy volunteer) was combined with trypticase soy broth and HL60 human cells. […] FIG. 25 plots the normalized intensity for the 1516 cm^−1 peak as a function of time for the rhizoxin containing sample.
# S. aureus = test: Lycopene Raman peak (1516 cm^-1) slope versus time in inoculated serum, MIC estimate; settings: S. aureus 10^5 cfu/mL; vancomycin 1, 5 and 20 μg/mL; FIG. 17
# Procedure: FIGS. 17 & 18 illustrate the method by which a marker can be used to estimate the minimum inhibitory concentration MIC. FIG. 17 illustrates the Raman peak height at 1516 cm^−1 (which has been ascribed to lycopene) as a function of time for several samples. The samples include a serum sample that has been artificially inoculated with S. aureus to a concentration of 10^5 cfu/mL, and additional samples that also contain various concentrations of vancomycin (1, 5 and 20 μg/mL) as indicated in the legend.
# FIG. 18 plots the slope of all the traces in FIG. 17, as a function of added vancomycin concentration. The dashed horizontal line corresponds to the slope of the sample without any added vancomycin, and the 3 data points correspond to vancomycin concentrations of 1, 5 and 20 μg/mL. The solid black line is a logarithmic fit of the 3 data points, and the MIC corresponds to the point at which the solid black line intersects the dashed line.
SMILES,effectiveness of dose by peak height versus time trace [1],lycopene peak height (1516 cm^-1) over time (HL60 human cells),slope of lycopene 1516 cm^-1 peak intensity versus time (S. aureus)
CC1(C)S[C@@H]2[C@H](NC(=O)[C@H](N)c3ccccc3)C(=O)N2[C@H]1C(=O)O [ampicillin],ineffective dose,–,–
CO[C@@H](/C(C)=C/C=C/C(C)=C/c1coc(C)n1)[C@@H](C)[C@@H]1C[C@H](O)[C@@]2(C)O[C@@H]2/C=C/[C@@H](C)[C@H]2C[C@H](CC(=O)O2)C[C@@H]2O[C@H]2C(=O)O1 [rhizoxin],–,"increases significantly at first, followed by a steady decline",–
CN[C@H](CC(C)C)C(=O)N[C@H]1C(=O)N[C@@H](CC(N)=O)C(=O)N[C@H]2C(=O)N[C@H]3C(=O)N[C@H](C(=O)N[C@H](C(=O)O)c4cc(O)cc(O)c4-c4cc3ccc4O)[C@H](O)c3ccc(c(Cl)c3)Oc3cc2cc(c3O[C@@H]2O[C@H](CO)[C@@H](O)[C@H](O)[C@H]2O[C@H]2C[C@](C)(N)[C@H](O)[C@H](C)O2)Oc2ccc(cc2Cl)[C@H]1O [vancomycin],effective dose,–,slope progressively decreases as more vancomycin is added
